Our source for the relative viability values is the supplement of paper PMC10307832.

Common to all, as to experiment: relative viability (nuclei count vs DMSO), 5 days (fraction); higher = more cells survive
Compound in assay [1]: C=CCc1cccc(/C=N/NC(=O)CN2CCN(Cc3ccccc3)CC2)c1O [PAC-1] + C[C@]1(O)C[C@@H](c2nc(-c3ccc4ccc(-c5ccccc5)nc4c3)c3c(N)nccn32)C1 [Linsitinib] (partner 1 µM)
The method in brief: (§1)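 Lung cancer cell lines were pin-tool dosed in 1536-well plates on the day after seeding, with either a lone drug or a fixed anchor-drug dose plus five library-drug doses (not always all listed) in √10 steps. Nuclei were counted on 4× images after 5 days. Relative viability is the ratio of treated-well to vehicle-well nuclei counts, with each value a median of duplicate plates.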

Compound in assay [2]: C=CC(=O)Nc1cc(-n2c(=O)ccc3cnc4ccc(-c5ccc(NS(C)(=O)=O)cc5)cc4c32)ccc1C [BMX-IN-1] + C[C@]1(O)C[C@@H](c2nc(-c3ccc4ccc(-c5ccccc5)nc4c3)c3c(N)nccn32)C1 [Linsitinib] (partner 1 µM)
The method, boiled down:
as §1

Compound in assay [3]: C=CCc1cccc(/C=N/NC(=O)CN2CCN(Cc3ccccc3)CC2)c1O [PAC-1] + CS(=O)(=O)N1CCN(Cc2cc3nc(-c4cccc5[nH]ncc45)nc(N4CCOCC4)c3s2)CC1 [Pictilisib] (partner 1 µM)
The method, boiled down:
as §1

Compound in assay [4]: C=CC(=O)N1CCC[C@@H](n2nc(-c3ccc(Oc4ccccc4)cc3)c3c(N)ncnc32)C1 [Ibrutinib] + COc1cccc2cc(-c3nc([C@H]4CC[C@H](C(=O)O)CC4)n4ncnc(N)c34)[nH]c12 [OSI-027] (partner 0.5 µM)
The method, boiled down: as §1

As to SK-MES-1, the relative viability in assay [1] (first compound 0.02 µM) was determined as 1.04; in assay [1] (first compound 0.06325 µM), 1.03; in assay [1] (first compound 0.2 µM) it was 1.04; in assay [1] (first compound 2 µM), 1.03; in assay [2] (first compound 0.02 µM), 1.11; in assay [2] (first compound 0.2 µM), 1.06. The relative viability in assay [2] (first compound 0.6325 µM) is 1.15; in assay [2] (first compound 2 µM), 1.07; in assay [3] (first compound 0.02 µM), 0.336; in assay [3] (first compound 0.06325 µM) it was 0.297; in assay [3] (first compound 0.2 µM) it was 0.336; in assay [3] (first compound 2 µM), 0.322. Further, the relative viability in assay [4] (first compound 0.005 µM) is 0.584; in assay [4] (first compound 0.01581 µM), 0.568; in assay [4] (first compound 0.05 µM), 0.584; in assay [4] (first compound 0.1581 µM), 0.687; in assay [4] (first compound 0.5 µM) it was 0.357.
